Values after ≈ are worked out from the molar mass of the structure shown. Active and inactive are the calls of the source. No cut-off for these calls is given here.
Tests used:
[1] = Cytotoxicity against human PLC/PRF/5 cells; format: functional; details: read-out: ED50 (the source's name)
KB = experiment: Cytotoxicity against human KB cells; format: functional; details: read-out: ED50 (the source's name)
Mus musculus = experiment: Protective activity against CCL4-induced hepatotoxicity in ICR mouse assessed as SGOT/SGPT levels at 0.1 to 3 mg/kg, ip

## C[C@H]1CC[C@H]([C@@H](C)[C@H]2[C@H](O)C[C@H]3[C@@H]4CC=C5C[C@@H](O)CC[C@]5(C)[C@H]4CC[C@]23C)NC1 [CAPSIMINE]
[1]
  EC50: 1.97 µg/mL (≈ 4.74 µM)
KB
  EC50: 1.35 µg/mL (≈ 3.25 µM)
Mus musculus
  Activity: Active

## C[C@@H]1CC[C@@]2(NC1)O[C@H]1C[C@H]3[C@@H]4CC=C5C[C@@H](O[C@@H]6O[C@H](CO)[C@H](O)[C@H](O[C@@H]7O[C@H](CO)[C@@H](O)[C@H](O)[C@H]7O)[C@H]6O[C@@H]6O[C@@H](C)[C@H](O)[C@@H](O)[C@H]6O)CC[C@]5(C)[C@H]4CC[C@]3(C)[C@H]1[C@@H]2C [SOLASONINE]
[1]
  EC50: 7.88 µg/mL (≈ 8.91 µM)
KB
  EC50: 11.4 µg/mL (≈ 12.9 µM)

## C[C@H]1CC=C([C@@H](C)[C@H]2[C@H](O)C[C@H]3[C@@H]4CC=C5C[C@@H](O)CC[C@]5(C)[C@H]4CC[C@]23C)NC1 [ETIOLINE]
[1]
  EC50: 2.67 µg/mL (≈ 6.45 µM)
KB
  EC50: 11.2 µg/mL (≈ 27.1 µM)

## C[C@@H]1CC[C@]2(O[C@H]3C[C@H]4[C@@H]5CC=C6C[C@@H](O)CC[C@]6(C)[C@H]5CC[C@]4(C)[C@H]3[C@@H]2C)N(C)C1
[1]
  EC50: 8.02 µg/mL (≈ 18.8 µM)
KB
  EC50: 6 µg/mL (≈ 14 µM)

## O=C1C[C@@H](c2ccc(O)cc2)Oc2cc(O)cc(O)c21 [NARINGENIN]
[1]
  EC50: 2.47 µg/mL (≈ 9.07 µM)
KB
  EC50: 2.71 µg/mL (≈ 9.95 µM)

## C[C@@H]1CC[C@@]2(NC1)O[C@H]1C[C@H]3[C@@H]4CC=C5C[C@@H](O[C@@H]6O[C@H](CO)[C@@H](O[C@@H]7O[C@@H](C)[C@H](O)[C@@H](O)[C@H]7O)[C@H](O)[C@H]6O)CC[C@]5(C)[C@H]4CC[C@]3(C)[C@H]1[C@@H]2C
Mus musculus
  Activity: Active

## C[C@H]1CC[C@H]([C@@H](C)[C@H]2[C@H](O)C[C@H]3[C@@H]4CC=C5C[C@@H](O[C@@H]6O[C@H](CO)[C@@H](O)[C@H](O)[C@H]6O)CC[C@]5(C)[C@H]4CC[C@]23C)NC1 [CAPSICASTRINE]
[1]
  EC50: 1.78 µg/mL (≈ 3.08 µM)

## C[C@@H]1CC[C@H]([C@@H](C)C2[C@H](O)C[C@H]3[C@@H]4CC=C5C[C@@H](O[C@@H]6O[C@H](CO)[C@@H](O)[C@H](O)[C@H]6O)CC[C@]5(C)[C@H]4CC[C@]23C)NC1 (some centres undefined)
Mus musculus
  Activity: Active
